{"source": "paper PMC11926788", "about": "“Effect of SSR504734, a Selective Glycine Transporter Type 1 Inhibitor, on Seizure Thresholds, Neurotransmitter Levels, and Inflammatory Markers in Mice” (ACS Chemical Neuroscience, 2025)", "key": {"[1]": {"assay": "Pharmacokinetic study of SSR504734 in mice (serum and tissue concentrations by LC-MS/MS, noncompartmental analysis)", "type": "in vivo", "method": "SSR504734 was administered i.p. at the dose of 30 mg/kg, and mice were sacrificed by decapitation at 5, 15, 30, 60, 120, 240, and 480 min after dosing. The trunk blood samples (∼1 mL) were collected in polypropylene tubes and allowed to clot at room temperature. Subsequently, the blood was centrifuged at 5600 rpm for 10 min. Serum samples were collected in new tubes. Immediately after decapitation, brains and other tissues such as the liver, lungs, kidneys, heart, spleen, gut, and adipose were removed from the skull and washed with cold 0.9% NaCl. Samples were kept at −80 °C until the day of analysis.\nSerum and tissue concentrations of SSR504734 in mice were quantified by a liquid chromatography tandem mass spectrometry (LC-MS/MS) method. Stock solutions of the studied compound were prepared in methanol at a concentration of 1 mg/mL. Working solutions were prepared by dilution of the standard solutions in acetonitrile/water 1:1 (v/v). Tissue homogenates were obtained by homogenization of each tissue in distilled water at a ratio of 1:4 (w/v) using a basic T10 ULTRA-TURRAX tissue homogenizer (IKA, Poland). Mouse serum and tissues, which were used to prepare standard samples and quality control (QC) samples, were harvested from untreated healthy animals after exsanguination. Standard and QC samples were prepared by adding 5 μL of working solutions of SSR504734 to 45 μL of mouse serum or 45 μL of tissue homogenates. Real serum and homogenate samples, QC samples, and standard samples were subjected to the same precipitation procedure. Briefly, 150 μL of 0.1% formic acid solution in acetonitrile containing pentoxifylline (PTX) as an internal standard (IS) at a concentration of 5 ng/mL was added to 50 μL of analyzed serum, homogenate, standard samples, or QC samples in Eppendorf tubes and mixed on a vortex mixer for 10 min (IKA Vibrax VXR, Germany). Subsequently, samples were centrifuged at 10,000 rpm for 10 min at room temperature (Eppendorf miniSpin centrifuge). 2 μL of supernatant was subjected to LC-MS/MS analysis using an Exion LC AC HPLC system coupled to a SCIEX QTRAP 4500 triple-quadrupole mass spectrometer (Danaher Corporation, Framingham, MA, US). Chromatographic separation was performed using a Hypersil Gold C18 analytical column (2.1 × 50 mm, 3 μm) (Thermo Scientific, USA) at 25 °C. The mobile phase consisting of water containing 0.1% formic acid and acetonitrile containing 0.1% formic acid (60:40, v/v) was pumped at a flow rate of 0.5 mL/min in an isocratic elution mode. All detections were performed in positive ion mode. The selected reaction monitoring (SRM) for the transitions was m/z 397.2 → 207.0 and m/z 397.2 → 174.2 (quantifier and qualifier) for SSR504734 and m/z 279 → 181 for IS. The optimal MS parameters for SSR504734 multiple reaction monitoring (MRM) transitions selected by continuous infusion of the standard solution at the rate of 7 μL/min using a Harvard infusion pump were as follows: the declustering potential was 120 V, the collision energy was 35.6 V, the entrance potential was 10 V, and the cell exit potential was 6 V. These parameters for IS were 60, 24, 10, and 6 V, respectively. An additional tuning optimization of gas flows and temperatures was performed by flow injection analysis. The ion source temperature was maintained at 450 °C, the ion spray voltage at 4000 V, the curtain gas (CUR) was set at 25 psi, the nebulizer (GS1) and TIS (GS2) gases at 40.0 and 50.0 psi, respectively, and the collision gas (CAD) at Medium.\nData acquisition and processing were carried out using Analyst 1.7 software. The calibration curves were constructed by plotting the ratio of the peak area of the analyte to the peak area of the IS vs the concentration of the analyte and generated by weighted (1/y) nonlinear regression analysis by fitting a quadratic formula. […]"}, "[2]": {"test_system": "tonic hindlimb extension in the MEST test in rats", "settings": "cited from earlier work"}, "[3]": {"settings": "mouse, ip, adipose, single 30 mg/kg i.p."}, "[4]": {"settings": "mouse, ip, brain, single 30 mg/kg i.p."}, "[5]": {"settings": "mouse, ip, gut, single 30 mg/kg i.p."}, "[6]": {"settings": "mouse, ip, heart, single 30 mg/kg i.p."}, "[7]": {"settings": "mouse, ip, kidneys, single 30 mg/kg i.p."}, "[8]": {"settings": "mouse, ip, liver, single 30 mg/kg i.p."}, "[9]": {"settings": "mouse, ip, lungs, single 30 mg/kg i.p."}, "[10]": {"settings": "mouse, ip, serum, single 30 mg/kg i.p."}, "[11]": {"settings": "mouse, ip, spleen, single 30 mg/kg i.p."}}, "note": "Counter-ions that a name gives are not always drawn. Like-named read-outs stand apart in the source and are kept apart here."}
{"smiles": "O=C(NC(c1ccccc1)C1CCCCN1)c1cccc(C(F)(F)F)c1Cl", "note": "[SSR504734, 2-chloro-N-[(S)-phenyl[(2S)-piperidin-2-yl]methyl]-3-trifluoromethyl benzamide monohydrochloride]", "values": [{"measurement": "AUClast", "setting": "[1]; adipose, single 30 mg/kg i.p.", "value": "3347.89 µg·min/mL (g tissue)"}, {"measurement": "AUClast", "setting": "[1]; brain, single 30 mg/kg i.p.", "value": "1137.50 µg·min/mL (g tissue)"}, {"measurement": "Kp (tissue-to-serum partition coefficient, AUClast(tissue)/AUClast(serum))", "setting": "[1]; brain, single 30 mg/kg i.p., 30 mg/kg", "value": 3.05}, {"measurement": "AUClast", "setting": "[1]; gut, single 30 mg/kg i.p.", "value": "10606.43 µg·min/mL (g tissue)"}, {"measurement": "AUClast", "setting": "[1]; heart, single 30 mg/kg i.p.", "value": "4841.83 µg·min/mL (g tissue)"}, {"measurement": "AUClast", "setting": "[1]; kidneys, single 30 mg/kg i.p.", "value": "16781.00 µg·min/mL (g tissue)"}, {"measurement": "AUClast", "setting": "[1]; liver, single 30 mg/kg i.p.", "value": "8821.36 µg·min/mL (g tissue)"}, {"measurement": "AUClast", "setting": "[1]; lungs, single 30 mg/kg i.p.", "value": "33485.57 µg·min/mL (g tissue)"}, {"measurement": "Kp", "setting": "[1]; mouse, adipose (relative to serum), ip, 30 mg/kg, adipose, single 30 mg/kg i.p., read-out: Kp (tissue-to-serum partition coefficient)", "value": 8.98}, {"measurement": "Kp", "setting": "[1]; mouse, brain (relative to serum), ip, 30 mg/kg, brain, single 30 mg/kg i.p., read-out: Kp (tissue-to-serum partition coefficient, AUClast(tissue)/AUClast(serum))", "value": "> 3"}, {"measurement": "Kp", "setting": "[1]; mouse, gut (relative to serum), ip, 30 mg/kg, gut, single 30 mg/kg i.p., read-out: Kp (tissue-to-serum partition coefficient)", "value": 28.5}, {"measurement": "Kp", "setting": "[1]; mouse, heart (relative to serum), ip, 30 mg/kg, heart, single 30 mg/kg i.p., read-out: Kp (tissue-to-serum partition coefficient)", "value": 13}, {"measurement": "Cmax", "setting": "[1]; mouse, ip, 30 mg/kg i.p., assuming brain tissue density of ∼1 g/mL, read-out: Cmax in the brain tissue", "value": 5150, "unit": "ng/mL"}, {"measurement": "MRT", "setting": "[1]; [3]", "value": 1.37, "unit": "h"}, {"measurement": "Tmax", "setting": "[1]; [3]", "value": 0.0833, "unit": "h"}, {"measurement": "half-life", "setting": "[1]; [3]", "value": 1.33, "unit": "h"}, {"measurement": "Cmax", "setting": "[1]; mouse, ip, adipose, single 30 mg/kg i.p., read-out: Cmax", "value": 65700, "unit": "ng/g"}, {"measurement": "MRT", "setting": "[1]; [4]", "value": 2.36, "unit": "h"}, {"measurement": "Tmax", "setting": "[1]; [4]", "value": 0.5, "unit": "h"}, {"measurement": "half-life", "setting": "[1]; [4]", "value": 1.75, "unit": "h"}, {"measurement": "Cmax", "setting": "[1]; mouse, ip, brain, single 30 mg/kg i.p., read-out: Cmax", "value": 5150, "unit": "ng/g"}, {"measurement": "CL/F", "setting": "[1]; mouse, ip, from serum vs time profile, 30 mg/kg i.p., read-out: apparent clearance (CL/F)", "value": 77.8, "unit": "mL/min/kg"}, {"measurement": "Vd/F", "setting": "[1]; mouse, ip, from serum vs time profile, 30 mg/kg i.p., read-out: volume of distribution during the terminal phase (Vz/F)", "value": 11.1, "unit": "L/kg"}, {"measurement": "MRT", "setting": "[1]; [5]", "value": 1.96, "unit": "h"}, {"measurement": "Tmax", "setting": "[1]; [5]", "value": 0.0833, "unit": "h"}, {"measurement": "half-life", "setting": "[1]; [5]", "value": 1.73, "unit": "h"}, {"measurement": "Cmax", "setting": "[1]; mouse, ip, gut, single 30 mg/kg i.p., read-out: Cmax", "value": 77900, "unit": "ng/g"}, {"measurement": "MRT", "setting": "[1]; [6]", "value": 1.68, "unit": "h"}, {"measurement": "Tmax", "setting": "[1]; [6]", "value": 0.25, "unit": "h"}, {"measurement": "half-life", "setting": "[1]; [6]", "value": 1.31, "unit": "h"}, {"measurement": "Cmax", "setting": "[1]; mouse, ip, heart, single 30 mg/kg i.p., read-out: Cmax", "value": 38300, "unit": "ng/g"}, {"measurement": "MRT", "setting": "[1]; [7]", "value": 2.03, "unit": "h"}, {"measurement": "Tmax", "setting": "[1]; [7]", "value": 0.5, "unit": "h"}, {"measurement": "half-life", "setting": "[1]; [7]", "value": 1.4, "unit": "h"}, {"measurement": "Cmax", "setting": "[1]; mouse, ip, kidneys, single 30 mg/kg i.p., read-out: Cmax", "value": 93500, "unit": "ng/g"}, {"measurement": "MRT", "setting": "[1]; [8]", "value": 1.76, "unit": "h"}, {"measurement": "Tmax", "setting": "[1]; [8]", "value": 0.0833, "unit": "h"}, {"measurement": "half-life", "setting": "[1]; [8]", "value": 1.52, "unit": "h"}, {"measurement": "Cmax", "setting": "[1]; mouse, ip, liver, single 30 mg/kg i.p., read-out: Cmax", "value": 101000, "unit": "ng/g"}, {"measurement": "MRT", "setting": "[1]; [9]", "value": 2.6, "unit": "h"}, {"measurement": "Tmax", "setting": "[1]; [9]", "value": 0.25, "unit": "h"}, {"measurement": "half-life", "setting": "[1]; [9]", "value": 2.04, "unit": "h"}, {"measurement": "Cmax", "setting": "[1]; mouse, ip, lungs, single 30 mg/kg i.p., read-out: Cmax", "value": 147000, "unit": "ng/g"}, {"measurement": "MRT", "setting": "[1]; [10]", "value": 1.86, "unit": "h"}, {"measurement": "Tmax", "setting": "[1]; [10]", "value": 0.25, "unit": "h"}, {"measurement": "half-life", "setting": "[1]; [10]", "value": 1.65, "unit": "h"}, {"measurement": "Cmax", "setting": "[1]; mouse, ip, serum, single 30 mg/kg i.p., read-out: Cmax", "value": 3000, "unit": "ng/mL"}, {"measurement": "MRT", "setting": "[1]; [11]", "value": 1.66, "unit": "h"}, {"measurement": "Tmax", "setting": "[1]; [11]", "value": 0.25, "unit": "h"}, {"measurement": "half-life", "setting": "[1]; [11]", "value": 1.6, "unit": "h"}, {"measurement": "Cmax", "setting": "[1]; mouse, ip, spleen, single 30 mg/kg i.p., read-out: Cmax", "value": 193000, "unit": "ng/g"}, {"measurement": "Kp", "setting": "[1]; mouse, kidneys (relative to serum), ip, 30 mg/kg, kidneys, single 30 mg/kg i.p., read-out: Kp (tissue-to-serum partition coefficient)", "value": 45}, {"measurement": "Kp", "setting": "[1]; mouse, liver (relative to serum), ip, 30 mg/kg, liver, single 30 mg/kg i.p., read-out: Kp (tissue-to-serum partition coefficient)", "value": 23.7}, {"measurement": "Kp", "setting": "[1]; mouse, lungs (relative to serum), ip, 30 mg/kg, lungs, single 30 mg/kg i.p., read-out: Kp (tissue-to-serum partition coefficient)", "value": 89.8}, {"measurement": "Kp", "setting": "[1]; mouse, spleen (relative to serum), ip, 30 mg/kg, spleen, single 30 mg/kg i.p., read-out: Kp (tissue-to-serum partition coefficient)", "value": 50}, {"measurement": "AUClast", "setting": "[1]; serum, single 30 mg/kg i.p.", "value": "372.73 µg·min/mL (g tissue)"}, {"measurement": "AUClast", "setting": "[1]; spleen, single 30 mg/kg i.p.", "value": "18616.26 µg·min/mL (g tissue)"}, {"measurement": "effect on threshold for tonic hindlimb extension", "setting": "[2]", "value": "strong, dose-dependent increase"}]}
